Test results published in US20240352010A1, “SUBSTITUTED 1,2,4-THIADIAZOLYL NICOTINAMIDES, SALTS OR N-OXIDES THEREOF AND THEIR USE AS HERBICIDALLY ACTIVE SUBSTANCES” (BayerAktiengesellschaft, priority 2021, published 2024).

Test system: Digitaria sanguinalis (DIGSA)
Experiment: Herbicidal post-emergence action, DIGSA
Format: in vivo
Conditions: 1280 g/ha, assessed visually after ca. 3 weeks vs untreated controls (Table B12)
Description: Seeds of mono- and dicotyledonous weed plants were sown in plastic pots (double sowings with one species of mono- and one species of dicotyledonous weed plants per pot), in sandy loam, covered with soil and grown under controlled growth conditions. 2 to 3 weeks after sowing, the test plants were sprayed in the single-leaf stage. The compounds according to the invention, formulated in the form of wettable powders (WP) or as emulsifiable concentrates (EC), were sprayed onto the green plant parts as an aqueous suspension or as an emulsion, with the addition of 0.5% of an additive, at an application rate of 600 litres of water per hectare (converted). The test plants were placed in the greenhouse for ca. 3 weeks under optimum growth conditions, and then the effect of the preparations is assessed visually in comparison with untreated controls (herbicidal effect in percent (%): 100% effect=plants have died, 0% effect=as control plants).

O=C(Nc1ncns1)c1c(C2CC2)ccnc1F [Example I-005]
herbicidal effect in percent, DIGSA: 100%
